From US7365080B2, “Pharmaceutical compositions comprising thieno[2,3-c]pyridine derivatives and use thereof” (Rimonyx Pharmaceuticals Ltd., priority 2003, dated 2008)

Key:
BALB/c mice [1] = experiment: Thioglycollate-induced leukocyte and neutrophil infiltration into mouse peritoneum; assay type: in vivo
Protocol: The ability of compounds of the present invention to reduce leukocyte migration to sites of acute inflammation was evaluated in BALB/c mice using a thioglycolate-induced model of peritonitis. In this animal model, interactions of L- and P-selectin with HS-GAGs have been implicated in neutrophil infiltration (Nelson, R. M., 82:3253-3258, 1993; Xie, X. et al., J. Biol. Chem., 275:34818-34825, 2000).
BALB/c mice (6 weeks old, ˜20 g in weight, 15 mice/group) received intraperitoneal injection of an inhibitor compound in 0.2 ml DMSO/Tween/sterile saline 1 hour before administration of thioglycollate (Sigma). Control groups received vehicle and sham controls received no thioglycollate. Mice were injected intraperitoneally with 1 ml of 3% thioglycollate broth (Xie, X. et al., J. Biol. Chem., 275, 34818-34825, 2000). Mice were sacrificed after 3 hours, and the peritoneal cavities were ravaged with […] of ice-cold saline containing 2 mM EDTA to prevent clotting. After red blood cell lysis, leukocytes were counted in a hemocytometer. Neutrophils were counted after staining with Türck. Data was expressed as mean±SEM, and statistical analysis was performed by Student t test. A value of P<0.05 was taken to denote statistical significance.

BALB/c mice [2] = experiment: Carrageenan-induced paw edema; assay type: in vivo, mouse; details: i.p. administration 60 min before carrageenan
Protocol: Acute edema was induced in the left hind paw of Balb/c mice by injecting 0.02 ml of freshly prepared solution of 2% carrageenan after 60 min of test compound administration (Torres, S. R. et al., European Journal of Pharmacology 408: 199-211, 2000). The right paw received 0.02 ml of saline, which served as a control. Carrageenan was injected under the plantar region of right hind paw and the paw thickness was measured at 2, 4 and 24 hours after carrageenan challenge using a Mitutoyo engineer's micrometer expressed as the difference between right and left pad as mean±SEM. […] A dose response curve for Compound no.

L-Selectin = target: T1, L-Selectin (Homo sapiens, UniProt P14151); experiment: ELISA: inhibition of L-selectin/IgG binding to immobilized heparin (Heparin-BSA); details: L-Selectin binding to heparin; 50 μM
T1 construct: purchased Research and Development Systems 728-LS
T1 sequence (P14151 39-332 limits assumed): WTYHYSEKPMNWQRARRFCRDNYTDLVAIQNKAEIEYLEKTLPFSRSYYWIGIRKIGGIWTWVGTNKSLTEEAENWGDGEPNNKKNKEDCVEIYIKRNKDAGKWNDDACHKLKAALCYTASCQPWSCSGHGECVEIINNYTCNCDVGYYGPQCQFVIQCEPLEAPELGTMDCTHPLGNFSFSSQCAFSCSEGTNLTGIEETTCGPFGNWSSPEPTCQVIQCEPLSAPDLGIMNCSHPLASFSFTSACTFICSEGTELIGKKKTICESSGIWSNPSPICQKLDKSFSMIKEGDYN
Protocol: The inhibitory effect of the compounds of the present invention can be evaluated by several methods in vitro. One assay for measuring GAG-ECAM binding, exemplified herein below, detects the binding of L selectin/IgG to immobilized heparin. Another assay utilizes immobilized L-selectin, or L-selectin fused to protein domains other than IgG. The amount of bound L-selectin is determined by an ELISA assay using, for example, a monoclonal antibody raised against L-selectin, which is conjugated to horseradish peroxidase. […] The Dregg-55 antibody was also shown to inhibit L-selectin-dependent adhesion in vitro, neutrophil accumulation in vitro and inflammation in vivo (Co M. S. et al, Immunotechnology 493: 253-266, 1999).
An in vitro assay was used to assess the ability of test compounds according to formula I to inhibit the interactions of L-selectin with HS-GAGs. The assay was suitable for determining the concentration required for 50% inhibition (IC-50) for each specific compound. In the assay, the GAG used was heparin. Thus, porcine intestinal mucosa heparin conjugated to Bovine Serum Albumin (Heparin-BSA; Sigma Cat. No. H0403) at […] in Phosphate Buffered Saline (PBS; pH 6.5) was added to a 96 well polystyrene ELISA plate (NUNC Cat. No. 442404; 0.1 ml per well) and incubated Over Night (ON) at 4° C. Following the incubation, the plate was washed thoroughly, by immersion, with de-ionized water and PBS (pH 6.5). The ELISA plate was then blocked with BSA (ICN Cat. No.160069, 3%, 200 μl per well) for 1 hour at Room Temperature (RT). Following blocking, the plate was washed with de-ionized water, and then with PBS (pH 6.5) containing Tween 20 (Sigma Cat. No. P-1379, 0.05%). Compounds were synthesized or purchased from ChemDiv Labs (San Diego, Calif.), dissolved in DMSO, diluted in PBS and added to the wells at various concentrations in the range of 0.01 to 300 μM. Recombinant Human L-Selectin/IgG (Research and Development Systems Cat. No.728-LS) dissolved in PBS supplemented with BSA (0.1%) and calcium chloride (1 mM) was added to the ELISA plate (100 μl per well) and incubated for 60 minutes at RT with shaking. Following incubation, the plate was washed with de-ionized water and three times with PBS (pH 6.5) containing Tween 20. Anti-Human IgG Peroxidase Conjugate (1:5000; Sigma Product No. A8667) diluted in PBS supplemented with BSA (0.1%) and calcium chloride (1 mM) was added to the ELISA plate (100 μl per well) and incubated for 30 minutes at RT with shaking. The plate was then washed with de-ionized water and three times with PBS (pH 6.5) containing Tween 20. The peroxidase substrate cromogen, TMB (Dako Cat. No. S1599) was added (100 μl per well) to the ELISA plate and incubated at room temperature. After 15 minutes ELISA Stop Solution (hydrochloric acid 1N, sulfuric acid 3N) was added (200 μl per well) to stop the peroxidase catalyzed colorimetric reaction. The Optical Density (OD) of the samples was measured at 450 nm using an ELISA plate reader (Dynatech MR5000). Data were analyzed with Graphpad Prism software and IC-50 values were established. The P-selectin assay was carried out in a similar fashion, except that Recombinant Human P-Selectin/IgG (Research and Development Systems Cat.No.137-PS) was used.

Mice = experiment: Delayed-type hypersensitivity (oxazolone, ear-swelling test); assay type: in vivo, mouse; details: 3 mg/kg iv, 24 hours after challenge
Protocol: Mice (15 animals per group) were sensitized by topical application of a 2% oxazolone (4-ethoxymethylene-2-phenyl-2-oxazoline-5-one; Sigma, St Louis, Mo.) solution in acetone/olive oil (4:1 vol/vol) to shaved abdomen (50 μl) and to each paw (5 μl) (Lange-Asschenfeldt B. et al., Blood 99:538-545, 2002). Five days after sensitization, right ears were challenged by topical application of 10 μl of a 1% oxazolone solution, whereas left ears were treated with vehicle alone. Compounds were administered 1 hr prior to challenge. The extent of inflammation was measured 24 hours after challenge, using the mouse ear-swelling test. The unpaired Student t test was used for statistical analyses.

[3] = system: immobilized heparin / L-selectin/IgG; experiment: Assay 1: direct interaction with heparin, pre-incubation versus co-incubation with L-selectin; assay type: binding; details: compound 0.1-200 μM, 90 min, washed before L-selectin/IgG
Protocol: Inhibitor Compounds at final concentration 0.1-200 μM were incubated in the ELISA plate for 90 min, and then washed with incubation buffer. After washing, L-selectin/IgG was added to the wells pre-incubated with compounds. At the same time, in separate control wells, L-selectin was co-incubated with inhibitor Compounds for 90 min. Following the incubation, L-selectin bound to the plate was quantified by antibody conjugated to Horse Radish Peroxidase and OD measurement as performed as described in Example 5.

inhibition at 50 µM (L-Selectin): 62% | level of inhibition of L-selectin binding to heparin, pre-incubation versus co-incubation [3]: same level of inhibition
SMILES: CCCCN(CC)S(=O)(=O)c1ccc(C(=O)Nc2sc3c(c2-c2nc4ccccc4s2)CCN(CC)C3)cc1 [Compound 5, 2-[[4-[(ethylbutylamino)sulfonyl]benzoyl]amino]-3-(benzothiazol-2-yl)-6-ethyl-4,5,6,7-tetrahydrothieno[2,3-c]pyridine]
reduction of leukocyte infiltration (BALB/c mice [1]; 2 mg/kg intraperitoneal): 25% | reduction of leukocyte infiltration (BALB/c mice [1]; 10 mg/kg intraperitoneal): 50% | reduction of leukocyte infiltration (BALB/c mice [1]; 50 mg/kg intraperitoneal): 75% | neutrophil infiltration in mouse peritonitis (in words) (BALB/c mice [1]; FIG. 4, 2, 10, 50 mg/kg): dose-dependent inhibition | leukocyte migration into the peritoneal cavity (in words) (BALB/c mice [1]; intraperitoneal, 1 hour before thioglycollate, 3 hours): inhibited efficiently | carrageenan induced paw edema (in words) (BALB/c mice [2]): anti-inflammatory properties | DTH, % of control value (Mice): 56 % of control value
